Data reported in the NIST ThermoML archive (doi:10.1016/j.jct.2015.12.028).
± gives the expanded uncertainty stated by the source.

Conditions: Liquid, light scattering

CCCCCCCC(=O)OCC [ethyl octanoate]
Conditions | speed of sound [m/s]
382.95 K, 100 kPa | 972.04 ± 9.8
382.95 K, 1050 kPa | 980.18 ± 9.9
383.03 K, 8530 kPa | 1028.1 ± 10
383.13 K, 9970 kPa | 1042.4 ± 10
391.81 K, 8490 kPa | 1002.4 ± 10
391.91 K, 9990 kPa | 1015 ± 10
392.15 K, 7010 kPa | 991.89 ± 10
392.29 K, 5490 kPa | 982.56 ± 9.9
392.32 K, 100 kPa | 938.67 ± 9.4
392.32 K, 1010 kPa | 945.16 ± 9.5
392.33 K, 2550 kPa | 958.2 ± 9.6
392.33 K, 4070 kPa | 971.34 ± 9.8
402.89 K, 4000 kPa | 940.63 ± 9.5
402.9 K, 7020 kPa | 959.16 ± 9.7
402.91 K, 100 kPa | 905.5 ± 9.1
402.91 K, 1000 kPa | 915.87 ± 9.2
402.91 K, 2490 kPa | 928.04 ± 9.3
402.91 K, 8480 kPa | 970.85 ± 9.8
402.92 K, 10030 kPa | 980.74 ± 9.9
402.93 K, 5470 kPa | 948.7 ± 9.6
412.66 K, 8500 kPa | 941.83 ± 9.5
412.76 K, 10040 kPa | 953.27 ± 9.6
412.87 K, 7050 kPa | 922.57 ± 9.3
413.17 K, 5530 kPa | 910.63 ± 9.2
413.21 K, 100 kPa | 872.52 ± 8.8
413.21 K, 1080 kPa | 878.09 ± 8.8
413.21 K, 4060 kPa | 901.97 ± 9.1
413.22 K, 2570 kPa | 890.98 ± 9
423.24 K, 8520 kPa | 908.5 ± 9.2
423.29 K, 7010 kPa | 892.99 ± 9
423.3 K, 5530 kPa | 882.56 ± 8.9
423.31 K, 2520 kPa | 857.92 ± 8.6
423.32 K, 100 kPa | 839.73 ± 8.5
423.32 K, 1150 kPa | 848.64 ± 8.6
423.44 K, 10060 kPa | 919.28 ± 9.3
423.53 K, 4090 kPa | 870.32 ± 8.8
432.95 K, 5520 kPa | 847.49 ± 8.6
432.96 K, 8480 kPa | 875.16 ± 8.8
433.06 K, 10010 kPa | 888.66 ± 9
433.09 K, 7010 kPa | 859.4 ± 8.7
433.41 K, 2490 kPa | 823.86 ± 8.3
433.44 K, 100 kPa | 807.14 ± 8.1
433.44 K, 1010 kPa | 813.1 ± 8.2
433.84 K, 4510 kPa | 835.67 ± 8.4
442.69 K, 8510 kPa | 841.83 ± 8.5
442.9 K, 7010 kPa | 829.81 ± 8.4
442.99 K, 10020 kPa | 857.21 ± 8.7
443.15 K, 5510 kPa | 817.42 ± 8.2
443.16 K, 3990 kPa | 805.02 ± 8.1
443.51 K, 2510 kPa | 790.8 ± 8
443.55 K, 100 kPa | 774.74 ± 7.8
443.55 K, 990 kPa | 780.57 ± 7.9
452.41 K, 8480 kPa | 813.49 ± 8.2
452.7 K, 7010 kPa | 798.22 ± 8.1
453.15 K, 5520 kPa | 789.35 ± 8
453.41 K, 10010 kPa | 826.34 ± 8.3
453.47 K, 4510 kPa | 776.37 ± 7.8
453.61 K, 2490 kPa | 762.74 ± 7.7
453.66 K, 100 kPa | 742.53 ± 7.5
453.66 K, 1010 kPa | 749.03 ± 7.6
462.5 K, 7010 kPa | 772.63 ± 7.8
463.14 K, 8480 kPa | 783.19 ± 7.9
463.15 K, 5520 kPa | 760.28 ± 7.7
463.24 K, 10010 kPa | 795.41 ± 8
463.71 K, 2490 kPa | 730.68 ± 7.4
463.78 K, 100 kPa | 710.51 ± 7.2
463.78 K, 1010 kPa | 715.5 ± 7.2
463.79 K, 4510 kPa | 744.72 ± 7.5
472.07 K, 8500 kPa | 760.99 ± 7.7
472.09 K, 1040 kPa | 688.23 ± 7
472.09 K, 6960 kPa | 745.31 ± 7.5
472.11 K, 2530 kPa | 704.34 ± 7.1
472.14 K, 5460 kPa | 730.7 ± 7.4
472.15 K, 4000 kPa | 718.2 ± 7.3
472.17 K, 10000 kPa | 773.29 ± 7.8
473.09 K, 100 kPa | 678.69 ± 6.9

Conditions | speed of sound [m/s]
383 K | 969.3 ± 9.7
392.03 K | 936.3 ± 9.4
403.14 K | 901.4 ± 9.1
413.12 K | 869.5 ± 8.8
423.11 K | 835.7 ± 8.4
433.2 K | 801.1 ± 8.1
443.05 K | 770.7 ± 7.8
453.11 K | 738.5 ± 7.5
463.17 K | 705.5 ± 7.1
472.16 K | 675 ± 6.8
